Results on 19 compounds are retold here after US7943770B2, “Fused quinoline derivative and use thereof” (Takeda Pharmaceutical Company Limited, priority 2004, dated 2011).

Where only a bound is given, the exact number is not on record here.

For this experiment, the target named is T1, hNK2 receptor (Homo sapiens, UniProt P21452).
T1 construct: host or cells: CHO cells
T1 sequence (P21452 1-398): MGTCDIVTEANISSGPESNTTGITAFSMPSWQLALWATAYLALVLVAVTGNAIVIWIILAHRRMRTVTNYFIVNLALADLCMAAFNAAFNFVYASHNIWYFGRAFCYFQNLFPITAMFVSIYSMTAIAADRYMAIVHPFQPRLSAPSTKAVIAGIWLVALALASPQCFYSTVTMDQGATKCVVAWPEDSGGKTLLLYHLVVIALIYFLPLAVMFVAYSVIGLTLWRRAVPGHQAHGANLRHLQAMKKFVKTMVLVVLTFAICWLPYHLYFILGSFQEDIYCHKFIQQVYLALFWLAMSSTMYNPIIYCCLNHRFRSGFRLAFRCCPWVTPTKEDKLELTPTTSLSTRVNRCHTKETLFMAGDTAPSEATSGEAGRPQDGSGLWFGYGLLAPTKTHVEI
The experiment can be described thus: Radio-ligand ([125I]-NKA) receptor binding inhibitory activity using membrane fraction of hNK2 receptor-expressing CHO cell. To be noted: membrane fraction of hNK2 receptor-expressing CHO cells, 25° C., 30 min. Here is the method:
hNK2 receptor-expressing CHO cells (produced by EUROSCREEN) were cultured in HAM-F12 medium containing 400 μg/ml Geneticin, 100 U/mL penicillin, 100 μg/mL streptomycin and 10% inactivated serum. The medium was removed and adhered cells were washed with PBS, and PBS containing 5 mM EDTA was added to detach the cells from the flask. The cells were recovered by centrifugation, suspended in suspending buffer A (15 mM Tris-HCl (pH 7.5), 2 mM MgCl2, 0.3 mM EDTA, 1 mM EGTA), disrupted by POLYTRON homogenizer (manufactured by KINEMATICA) and centrifuged at 800×g for 10 min. The supernatant was recovered and ultracentrifuged at 100000×g for 25 min. The precipitated fraction was suspended in suspending buffer B (7.5 mM Tris-HCl (pH 7.5), 12.5 mM MgCl2, 0.3 mM EDTA, 1 mM, […], 250 mM Sucrose) and cryopreserved (at −80° C.) as a receptor specimen.
An assay buffer (50 μl, 50 mM Tris-HCl (pH 7.4), 0.02% bovine serum albumin, 2 μg/mL chymostatin, 40 μg/mL bacitracin, 40 μg/mL APMSF, 3 mM MnCl2) was added to a 96 well microassay plate. Thereto was added a 20 μg/mL membrane specimen suspended in the assay buffer (50 μL). An assay buffer (50 μL) containing 2% dimethyl sulfoxide was added to examine the total binding, 4 unlabeled NKA (produced by Peptide Institute, Inc.) solution (50 μL) diluted with an assay buffer containing 2% dimethyl sulfoxide was added to examine non-specific binding, and a test compound diluted with an assay buffer (50 containing 2% dimethyl sulfoxide) was added to examine the binding inhibitory activity of the test compound. Furthermore, […] [^125I]-NKA (produced by Amersham Biosciences) solution (50 μL) was added to each well.
After reaction at 25° C. for 30 min., the reaction was stopped by rapid filtration on a unifilter plate (GF/C) (manufactured by PerkinElmer) using a cell harvester (manufactured by PerkinElmer) and the cells were washed 5 times with 50 mM Tris-HCl (pH 7.4) buffer containing 0.02% bovine serum albumin (250 μL). The GF/C filter plate was dried and 20 μl, of MicroScinti-O (manufactured by PerkinElmer) was added and the radioactivity was measured in Topcount (manufactured by PerkinElmer). The GF/C filter plate, which had been immersed in 0.3% polyethyleneimine for one day, was used. Specific binding is shown by the value obtained by subtracting non-specific binding from the total binding. The binding inhibitory activity of the test compound is shown by the ratio of the value obtained by subtracting the measured value associated with the addition of the test compound from the total binding, to the value of the specific binding.
Usually IC50 stands for the concentration that gives 50% inhibition. A high value points to weaker potency in that assay. Regarding `CCC(=O)N[C@@H]1CCCC[C@@H]1C(=O)N1CC[C@@H]2[C@H](c3ccccc3)Nc3ccccc3[C@@H]21` [Example 86, N-((1R,2S)-2-{[(3aR,4R,9bR)-4-Phenyl-2,3,3a,4,5,9b-hexahydro-1H-pyrrolo[3,2-c]quinolin-1-yl]carbonyl}cyclohexyl)propanamide], the IC50 was less than 10 nM.

As to `O=C(N[C@@H]1CCCC[C@@H]1C(=O)N1CC[C@@H]2[C@H](c3ccccc3)Nc3ccccc3[C@@H]21)c1ccc(C(F)(F)F)cc1` [Example 87, N-((1R,2S)-2-{[(3aR,4R,9bR)-4-Phenyl-2,3,3a,4,5,9b-hexahydro-1H-pyrrolo[3,2-c]quinolin-1-yl]carbonyl}cyclohexyl)-4-(trifluoromethyl)benzamide], the IC50 is less than 10 nM.

Regarding `O=C(N[C@@H]1CCCC[C@@H]1C(=O)N1CC[C@@H]2[C@H](c3ccccc3)Nc3ccccc3[C@@H]21)c1cccs1` [Example 89, N-((1R,2S)-2-{[(3aR,4R,9bR)-4-Phenyl-2,3,3a,4,5,9b-hexahydro-1H-pyrrolo[3,2-c]quinolin-1-yl]carbonyl}cyclohexyl)thiophene-2-carboxamide], the IC50 was less than 10 nM.

For the compound `COc1ccc(C(=O)N[C@@H]2CCCC[C@@H]2C(=O)N2CC[C@@H]3[C@H](c4ccccc4)Nc4ccccc4[C@@H]32)cc1` [Example 90, 4-Methoxy-N-((1R,2S)-2-{[(3aR,4R,9bR)-4-phenyl-2,3,3a,4,5,9b-hexahydro-1H-pyrrolo[3,2-c]quinolin-1-yl]carbonyl}cyclohexyl)benzamide], the IC50 is less than 1 nM.

Turning to `O=C(N[C@@H]1CCCC[C@@H]1C(=O)N1CC[C@@H]2[C@H](c3ccccc3)Nc3ccccc3[C@@H]21)c1ccncc1` [Example 91, N-((1R,2S)-2-{[(3aR,4R,9bR)-4-Phenyl-2,3,3a,4,5,9b-hexahydro-1H-pyrrolo[3,2-c]quinolin-1-yl]carbonyl}cyclohexyl)isonicotinamide], the IC50 was less than 10 nM.

Turning to `O=C(N[C@@H]1CCCC[C@@H]1C(=O)N1CC[C@@H]2[C@H](c3ccccc3)Nc3ccccc3[C@@H]21)c1ccc(F)cc1` [Example 92, 4-Fluoro-N-((1R,2S)-2-{[(3aR,4R,9bR)-4-phenyl-2,3,3a,4,5,9b-hexahydro-1H-pyrrolo[3,2-c]quinolin-1-yl]carbonyl}cyclohexyl)benzamide], the IC50 is less than 10 nM.

Consider `CCCCCC(=O)N[C@@H]1CCCC[C@@H]1C(=O)N1CC[C@@H]2[C@H](c3ccccc3)Nc3ccccc3[C@@H]21` [Example 93, N-((1R,2S)-2-{[(3aR,4R,9bR)-4-Phenyl-2,3,3a,4,5,9b-hexahydro-1H-pyrrolo[3,2-c]quinolin-1-yl]carbonyl}cyclohexyl)hexanamide], for which the IC50 was less than 10 nM.

In the case of `COc1ccccc1C(=O)N[C@@H]1CCCC[C@@H]1C(=O)N1CC[C@@H]2[C@H](c3ccccc3)Nc3ccccc3[C@@H]21` [Example 94, 2-Methoxy-N-((1R,2S)-2-{[(3aR,4R,9bR)-4-phenyl-2,3,3a,4,5,9b-hexahydro-1H-pyrrolo[3,2-c]quinolin-1-yl]carbonyl}cyclohexyl)benzamide], the IC50 was less than 10 nM.

In turn, `COc1cccc(C(=O)N[C@@H]2CCCC[C@@H]2C(=O)N2CC[C@@H]3[C@H](c4ccccc4)Nc4ccccc4[C@@H]32)c1` [Example 95, 3-Methoxy-N-((1R,2S)-2-{[(3aR,4R,9bR)-4-phenyl-2,3,3a,4,5,9b-hexahydro-1H-pyrrolo[3,2-c]quinolin-1-yl]carbonyl}cyclohexyl)benzamide] displayed an IC50 of less than 10 nM.

As to `O=C(N[C@@H]1CCCC[C@@H]1C(=O)N1CC[C@@H]2[C@H](c3ccccc3)Nc3ccccc3[C@@H]21)c1cccc(F)c1` [Example 96, 3-Fluoro-N-((1R,2S)-2-{[(3aR,4R,9bR)-4-phenyl-2,3,3a,4,5,9b-hexahydro-1H-pyrrolo[3,2-c]quinolin-1-yl]carbonyl}cyclohexyl)benzamide], the IC50 was less than 10 nM.

On to `Cc1ccccc1C(=O)N[C@@H]1CCCC[C@@H]1C(=O)N1CC[C@@H]2[C@H](c3ccccc3)Nc3ccccc3[C@@H]21` [Example 97, 2-Methyl-N-((1R,2S)-2-{[(3aR,4R,9bR)-4-phenyl-2,3,3a,4,5,9b-hexahydro-1H-pyrrolo[3,2-c]quinolin-1-yl]carbonyl}cyclohexyl)benzamide], for which the IC50 is less than 10 nM.

`Cc1cccc(C(=O)N[C@@H]2CCCC[C@@H]2C(=O)N2CC[C@@H]3[C@H](c4ccccc4)Nc4ccccc4[C@@H]32)c1` [Example 98, 3-Methyl-N-((1R,2S)-2-{[(3aR,4R,9bR)-4-phenyl-2,3,3a,4,5,9b-hexahydro-1H-pyrrolo[3,2-c]quinolin-1-yl]carbonyl}cyclohexyl)benzamide] yielded an IC50 of less than 1 nM.

`Cc1ccc(C(=O)N[C@@H]2CCCC[C@@H]2C(=O)N2CC[C@@H]3[C@H](c4ccccc4)Nc4ccccc4[C@@H]32)cc1` [Example 99, 4-Methyl-N-((1R,2S)-2-{[(3aR,4R,9bR)-4-phenyl-2,3,3a,4,5,9b-hexahydro-1H-pyrrolo[3,2-c]quinolin-1-yl]carbonyl}cyclohexyl)benzamide] returned an IC50 of less than 10 nM.

Take `COC(=O)c1ccc(C(=O)N[C@@H]2CCCC[C@@H]2C(=O)N2CC[C@@H]3[C@H](c4ccccc4)Nc4ccccc4[C@@H]32)cc1` [Example 100, Methyl 4-{[((1R,2S)-2-{[(3aR,4R,9bR)-4-phenyl-2,3,3a,4,5,9b-hexahydro-1H-pyrrolo[3,2-c]quinolin-1-yl]carbonyl}cyclohexyl)amino]carbonyl}benzoate]: the IC50 is less than 10 nM.

`O=C(/C=C/c1ccccc1)N[C@@H]1CCCC[C@@H]1C(=O)N1CC[C@@H]2[C@H](c3ccccc3)Nc3ccccc3[C@@H]21` [Example 101, (2E)-3-Phenyl-N-((1R,2S)-2-{[(3aR,4R,9bR)-4-phenyl-2,3,3a,4,5,9b-hexahydro-1H-pyrrolo[3,2-c]quinolin-1-yl]carbonyl}cyclohexyl)acrylamide] displayed an IC50 of less than 1 nM.

For `N#Cc1ccc(C(=O)N[C@@H]2CCCC[C@@H]2C(=O)N2CC[C@@H]3[C@H](c4ccccc4)Nc4ccccc4[C@@H]32)cc1` [Example 102, 4-Cyano-N-((1R,2S)-2-([(3aR,4R,9bR)-4-phenyl-2,3,3a,4,5,9b-hexahydro-1H-pyrrolo[3,2-c]quinolin-1-yl]carbonyl)cyclohexyl)benzamide], the IC50 is less than 10 nM.

`O=C(CCc1ccccc1)N[C@@H]1CCCC[C@@H]1C(=O)N1CC[C@@H]2[C@H](c3ccccc3)Nc3ccccc3[C@@H]21` [Example 103, 3-Phenyl-N-((1R,2S)-2-{[(3aR,4R,9bR)-4-phenyl-2,3,3a,4,5,9b-hexahydro-1H-pyrrolo[3,2-c]quinolin-1-yl]carbonyl}cyclohexyl)propanamide]: the IC50 was less than 1 nM.

As for `COc1ccc(C(=O)N[C@@H]2CCCC[C@@H]2C(=O)N2CC[C@@H]3[C@H](c4ccccc4)Nc4ccccc4[C@@H]32)cc1OC` [Example 104, 3,4-Dimethoxy-N-((1R,2S)-2-{[(3aR,4R,9bR)-4-phenyl-2,3,3a,4,5,9b-hexahydro-1H-pyrrolo[3,2-c]quinolin-1-yl]carbonyl}cyclohexyl)benzamide], the IC50 was less than 1 nM.

On to `COc1ccc(/C=C/C(=O)N[C@@H]2CCCC[C@@H]2C(=O)N2CC[C@@H]3[C@H](c4ccccc4)Nc4ccccc4[C@@H]32)cc1` [Example 105, (2E)-3-(4-Methoxyphenyl)-N-((1R,2S)-2-{[(3aR,4R,9bR)-4-phenyl-2,3,3a,4,5,9b-hexahydro-1H-pyrrolo[3,2-c]quinolin-1-yl]carbonyl}cyclohexyl)acrylamide], for which the IC50 was less than 1 nM.
